According to ChEMBL document CHEMBL3734723, “Synthesis and anticancer activity of 6-heteroarylcoumarins” (2015):

Assays:
Type in all cases: functional
[1] = tested on: CCRF-CEM; assay: Growth inhibition of human CCRF-CEM cells incubated for 48 hrs by sulforhodamine B assay; conditions: for CC50: read-out: LC50 (the source's name)
[2] = Growth inhibition of human RPMI8226 cells incubated for 48 hrs by sulforhodamine B assay; conditions: RPMI-8226, 48 h; for CC50: read-out: LC50 (the source's name)
[3] = Growth inhibition of human HCC2998 cells incubated for 48 hrs by sulforhodamine B assay; conditions: HCC 2998, 48 h; for CC50: read-out: LC50 (the source's name)
[4] = Growth inhibition of human HCT15 cells incubated for 48 hrs by sulforhodamine B assay; conditions: HCT-15, 48 h; for CC50: read-out: LC50 (the source's name)
[5] = Growth inhibition of human SF295 cells incubated for 48 hrs by sulforhodamine B assay; conditions: SF-295, 48 h
[6] = tested on: U-251; assay: Growth inhibition of human U251 cells incubated for 48 hrs by sulforhodamine B assay; conditions: U-251, 48 h; for CC50: read-out: LC50 (the source's name)
[7] = tested on: SK-MEL-28; assay: Growth inhibition of human SK-MEL-28 cells incubated for 48 hrs by sulforhodamine B assay; conditions: SK-MEL-28, 48 h; for CC50: read-out: LC50 (the source's name)
[8] = Growth inhibition of human OVCAR3 cells incubated for 48 hrs by sulforhodamine B assay; conditions: OVCAR-3, 48 h; for CC50: read-out: LC50 (the source's name)
[9] = Growth inhibition of human OVCAR5 cells incubated for 48 hrs by sulforhodamine B assay; conditions: OVCAR-5, 48 h; for CC50: read-out: LC50 (the source's name)
[10] = Growth inhibition of human UO31 cells incubated for 48 hrs by sulforhodamine B assay; conditions: UO-31, 48 h; for CC50: read-out: LC50 (the source's name)
[11] = Growth inhibition of human PC3 cells incubated for 48 hrs by sulforhodamine B assay; conditions: PC-3, 48 h; for CC50: read-out: LC50 (the source's name)
[12] = Growth inhibition of human BT549 cells incubated for 48 hrs by sulforhodamine B assay; conditions: BT-549, 48 h; for CC50: read-out: LC50 (the source's name)
[13] = tested on: T47D; assay: Growth inhibition of human T47D cells incubated for 48 hrs by sulforhodamine B assay; conditions: for CC50: read-out: LC50 (the source's name)
[14] = tested on: MDA-MB-468; assay: Growth inhibition of human MDA-MB-468 cells incubated for 48 hrs by sulforhodamine B assay; conditions: MDA-MB-468, 48 h; for CC50: read-out: LC50 (the source's name)
[15] = Growth inhibition of human non-small cell lung cancer cells after 48 hrs by sulforhodamine B assay; conditions: Cancer cell lines; for CC50: read-out: LC50 (the source's name)
[16] = Growth inhibition of human ovarian cancer cells after 48 hrs by sulforhodamine B assay; conditions: Cancer cell lines; for CC50: read-out: LC50 (the source's name)
[17] = tested on: K562; assay: Cytotoxicity against human K562 cells assessed as cell growth at 10 uM incubated for 48 hrs by sulforhodamine B assay; conditions: K562, 48 h, read-out: Activity
[18] = Cytotoxicity against human UACC62 cells assessed as cell growth at 10 uM incubated for 48 hrs by sulforhodamine B assay; conditions: UACC-62, 48 h, read-out: Activity
[19] = tested on: SK-MEL-5; assay: Cytotoxicity against human SK-MEL-5 cells assessed as cell growth at 10 uM incubated for 48 hrs by sulforhodamine B assay; conditions: SK-MEL-5, 48 h, read-out: Activity
[20] = tested on: CCRF-CEM; assay: Cytotoxicity against human CCRF-CEM cells assessed as cell growth at 10 uM incubated for 48 hrs by sulforhodamine B assay; conditions: read-out: Activity
[21] = Cytotoxicity against human HL-60(TB) cells assessed as cell growth at 10 uM incubated for 48 hrs by sulforhodamine B assay; conditions: HL-60, 48 h, read-out: Activity
[22] = tested on: A549; assay: Cytotoxicity against human A549 cells assessed as cell growth at 10 uM incubated for 48 hrs by sulforhodamine B assay; conditions: A549, 48 h, read-out: Activity
[23] = Cytotoxicity against human HOP92 cells assessed as cell growth at 10 uM incubated for 48 hrs by sulforhodamine B assay; conditions: HOP-92, 48 h, read-out: Activity
[24] = tested on: NCI-H23; assay: Cytotoxicity against human NCI-H23 cells assessed as cell growth at 10 uM incubated for 48 hrs by sulforhodamine B assay; conditions: NCI-H23, 48 h, read-out: Activity
[25] = Cytotoxicity against human COLO205 cells assessed as cell growth at 10 uM incubated for 48 hrs by sulforhodamine B assay; conditions: COLO 205, 48 h, read-out: Activity
[26] = Cytotoxicity against human HCT15 cells assessed as cell growth at 10 uM incubated for 48 hrs by sulforhodamine B assay; conditions: HCT-15, 48 h, read-out: Activity
[27] = Cytotoxicity against human SF539 cells assessed as cell growth at 10 uM incubated for 48 hrs by sulforhodamine B assay; conditions: SF-539, 48 h, read-out: Activity
[28] = Cytotoxicity against human SF268 cells assessed as cell growth at 10 uM incubated for 48 hrs by sulforhodamine B assay; conditions: SF-268, 48 h, read-out: Activity
[29] = Cytotoxicity against human LOXIMVI cells assessed as cell growth at 10 uM incubated for 48 hrs by sulforhodamine B assay; conditions: LOX IMVI, read-out: Activity
[30] = tested on: ACHN; assay: Cytotoxicity against human ACHN cells assessed as cell growth at 10 uM incubated for 48 hrs by sulforhodamine B assay; conditions: read-out: Activity
[31] = Cytotoxicity against human RXF393 cells assessed as cell growth at 10 uM incubated for 48 hrs by sulforhodamine B assay; conditions: RXF 393, 48 h, read-out: Activity
[32] = tested on: MCF7; assay: Cytotoxicity against human MCF7 cells assessed as cell growth at 10 uM incubated for 48 hrs by sulforhodamine B assay; conditions: MCF7, 48 h, read-out: Activity
[33] = Cytotoxicity against human […] cells assessed as cell growth at 10 uM incubated for 48 hrs by sulforhodamine B assay; conditions: read-out: Activity
[34] = tested on: SR; assay: Growth inhibition of human SR cells incubated for 48 hrs by sulforhodamine B assay
[35] = Cytotoxicity against human HCC2998 cells assessed as cell growth at 10 uM incubated for 48 hrs by sulforhodamine B assay; conditions: HCC 2998, 48 h, read-out: Activity
[36] = Cytotoxicity against human OVCAR3 cells assessed as cell growth at 10 uM incubated for 48 hrs by sulforhodamine B assay; conditions: OVCAR-3, 48 h, read-out: Activity
[37] = read-out: LC50 (the source's name)

Cc1cc(=O)oc2c(C)c(O)c(-c3ccnc(N)n3)cc12
GI50 [1]: 8.7 µM | TGI [1]: > 100 µM | CC50 [1]: > 100 µM | GI50 [2]: 55.1 µM | TGI [2]: > 100 µM | CC50 [2]: > 100 µM | GI50 [3]: > 100 µM | TGI [3]: > 100 µM | CC50 [3]: > 100 µM | GI50 [4]: 8.45 µM | TGI [4]: > 100 µM | CC50 [4]: > 100 µM | GI50 [5]: 8.74 µM | TGI [5]: > 100 µM | CC50 [5, 37]: > 100 µM | GI50 [6]: 8.59 µM | TGI [6]: > 100 µM | CC50 [6]: > 100 µM | GI50 [7]: > 100 µM | TGI [7]: > 100 µM | CC50 [7]: > 100 µM | GI50 [8]: 37.7 µM | TGI [8]: > 100 µM | CC50 [8]: > 100 µM | GI50 [9]: > 100 µM | TGI [9]: > 100 µM | CC50 [9]: > 100 µM | GI50 [10]: 2.59 µM | TGI [10]: > 100 µM | CC50 [10]: > 100 µM | GI50 [11]: > 100 µM | TGI [11]: > 100 µM | CC50 [11]: > 100 µM | GI50 [12]: 47.8 µM | TGI [12]: > 100 µM | CC50 [12]: > 100 µM | GI50 [13]: 5 µM | TGI [13]: > 100 µM | CC50 [13]: > 100 µM | GI50 [14]: 4.53 µM | TGI [14]: > 100 µM | CC50 [14]: > 100 µM | GI50 [15]: 24.4 µM | TGI [15]: > 100 µM | CC50 [15]: > 100 µM | GI50 [16]: 42.5 µM | TGI [16]: > 100 µM | CC50 [16]: > 100 µM | growth at 10 µM [17]: 46.5% | growth at 10 µM [18]: 51.5% | growth at 10 µM [19]: 38.5% | growth at 10 µM [20]: -36.8% | growth at 10 µM [21]: -0.65% | growth at 10 µM [22]: 39.5% | growth at 10 µM [23]: 47.4% | growth at 10 µM [24]: 68.3% | growth at 10 µM [25]: 46.9% | growth at 10 µM [26]: 50.4% | growth at 10 µM [27]: 60.7% | growth at 10 µM [28]: 62.6% | growth at 10 µM [29]: 27.2% | growth at 10 µM [30]: 26.9% | growth at 10 µM [31]: 55.7% | growth at 10 µM [32]: 22.1% | growth at 10 µM [33]: 40.4%

Cc1cc(=O)oc2c(C)c(O)c(-c3cc4ccc(F)cc4[nH]3)cc12
GI50 [1]: 4.42 µM | TGI [1]: 47.7 µM | CC50 [1]: > 100 µM | GI50 [2]: 1.9 µM | TGI [2]: 6.19 µM | CC50 [2]: > 100 µM | GI50 [34]: 3.24 µM | TGI [34]: 16.9 µM | CC50 [34, 37]: > 100 µM | GI50 [3]: 3.49 µM | TGI [3]: 13.5 µM | CC50 [3]: 39.9 µM | GI50 [4]: 3.09 µM | TGI [4]: 13.6 µM | CC50 [4]: 63.1 µM | GI50 [6]: 3.05 µM | TGI [6]: 13.2 µM | CC50 [6]: 43.4 µM | GI50 [7]: 4.58 µM | TGI [7]: 18.3 µM | CC50 [7]: 64.2 µM | GI50 [8]: 2.28 µM | TGI [8]: 7.02 µM | CC50 [8]: 37.5 µM | GI50 [9]: 3.34 µM | TGI [9]: 16.7 µM | CC50 [9]: 49.7 µM | GI50 [10]: 1.71 µM | TGI [10]: 6.21 µM | CC50 [10]: 25.5 µM | GI50 [11]: 2.64 µM | TGI [11]: 10 µM | CC50 [11]: > 100 µM | GI50 [12]: 3.57 µM | TGI [12]: 13.6 µM | CC50 [12]: 65.9 µM | GI50 [13]: 2.39 µM | TGI [13]: 22.1 µM | CC50 [13]: > 100 µM | GI50 [14]: 2.31 µM | TGI [14]: 8.66 µM | CC50 [14]: 80.4 µM | GI50 [15]: 2.75 µM | TGI [15]: 12.4 µM | CC50 [15]: 64.1 µM | GI50 [16]: 3.08 µM | TGI [16]: 17.2 µM | CC50 [16]: 73.6 µM | growth at 10 µM [17]: 26.7% | growth at 10 µM [18]: 26% | growth at 10 µM [19]: 8.97% | growth at 10 µM [20]: 43.1% | growth at 10 µM [21]: 27.9% | growth at 10 µM [22]: 39.3% | growth at 10 µM [23]: -9.31% | growth at 10 µM [24]: 10.2% | growth at 10 µM [26]: 31.9% | growth at 10 µM [27]: 47.3% | growth at 10 µM [28]: 48.7% | growth at 10 µM [29]: 36.4% | growth at 10 µM [30]: 27.6% | growth at 10 µM [31]: 64.4% | growth at 10 µM [32]: 28.3% | growth at 10 µM [33]: 41.2% | growth at 10 µM [35]: 24.9% | growth at 10 µM [36]: 16.5%
